Assay results from patent US20090239757A1, “Control Sequences Responding to AMP and Uses Thereof” (priority 2004, published 2009).
Residues, ends and D or L forms follow the SMILES beside them.

Tested on: E. coli TOP10
Experiment: microarray transcription profile of E. coli TOP10 expressing Novispirin G10 (pDRS5-novispirin, arabinose induced) relative to control strain pBAD gIII A
Format: cell-based, Escherichia coli
Procedure: In order to obtain a transcriptional profile of E. coli expressing Novispirin G10, 2×10 mL sterile LB media (10 g/L Bactotryptone, 5 g/L Yeast extract, and 10 g/L NaCl) containing 100 mg/L ampicillin was inoculated with E. coli TOP10 harbouring pDRS5-novispirin and pBAD gIII A, respectively. These cultures were grown overnight at 37° C. at 180 rpm. The overnight cultures were diluted 1/100 into fresh sterile RM media (2% Casamino Acids, 0.2% glycerol, 1 mM MgCl2, 0.1 mM thiamine, 6 g/L Na2HPO4, 3 g/L KH2PO4.2H2O, 0.5 g/L NaCl, 0.1 g/L NH4Cl at pH 7.4) supplemented with 100 mg/L ampicillin and 0.1% arabinose. 100 mL of each culture was grown at 37° C., 240 rpm for 4.5 hours before being harvested by poured into centrifugation tubes containing 10 mL pre-frozen milliQ water and immediate centrifugation at 4200 g for 15 minutes at 4° C. Immediately hereafter, the supernatant was decanted and the cell […] was frozen at −20° C. for storage until RNA preparation was initiated.
Total RNA was isolated from the two E. coli (expressing either Novispirin G10 or a control peptide) cultures by use of the High Pure RNA Isolation kit (Roche, cat #1 828 665) according to the manufacturers instructions. Residual DNA was removed on-column with RNase-free DNase. Labelled samples were prepared from 30 μg of total bacterial RNA. Fluorescent first strand cDNA was prepared by random primed reverse transcription (Superscript II; Life Technologies) by use of random hexamers for cDNA synthesis. 2 μl (20 μg) of random primer was mixed with 15 μl (30 μg) of total RNA, incubated for 5 min at 70° C., and cooled on ice. To each sample was added 5× first strand buffer (6 μl), 0.1 M DTT (3 μl), dNTP mix (5 mM dATP, dGTP and dTTP and 2 mM dCTP) (1 μl), RNaseOut (1 μl), Superscript II reverse transcriptase (2 μl) and Cy-dCTP (3 μl). Reverse transcription was carried out at 42° C. for 1 hr. RNA was removed by addition of 10 μl NaOH (1 M) and incubation at 65° C. for 10 min. The samples were neutralised by addition of 10 μl HCl (1 M). Cy3 and Cy5 cDNA samples were mixed and immediately purified with a GFX PCR DNA and Gel Band Purification Kit (Amersham Biosciences).
Slides were pre-hybridised at 42° C. for 45 min in a solution containing 4×SSC+0.5% SDS+1% BSA and dried by centrifugation. Hybridizations were in a volume of 25 μl under a supported cover slip at 42° C. for 16-18 h at high humidity. The hybridisation mixture was labelled cDNA in a formamide-based hybridisation buffer (MWG—supplied with the pan-arrays). Cover slip and supports were gently removed (2×SSC in a wash tray) and arrays were washed by immersion into 2×SSC+0.1% SDS for 5 min, 1×SSC+0.1% SDS for 5 min, 0.5×SSC for 5 min and 1× millipore water for 10 sec and dried by centrifugation. Slides were scanned on a GMS 418 scanner to detect Cy3 and Cy5 fluorescence. Data analysis was carried out using ImaGene 5.0 and GeneSight 3.5 from BioDiscovery (www.biodiscovery.com). Two biological replicate experiments with four replicate hybridisations in each experiment were carried out for generation of data.
Pan E. coli K12 Arrays from MWG Biotech were used in this study (lot No.: 020206). The 4239 E. coli K12 specific oligonucleotide probes present on this glass-based DNA chip represent the complete Escherichia coli (K12) genome
Gene expression data was analyzed using the GeneSight 4.1.5 software from BioDiscovery. Data was prepared using local background correction, removal of flagged spots (contaminated background or signal), floor value raising data to a minimum value of 20, calculation of ratio, log(2) transformation of ratios, print-tip lowess normalization, and finally combination of replicate spot.

[1] = confidence level of 90%, relative to control strain expressing a peptide without antimicrobial activity

CC[C@H](C)[C@H](NC(=O)CNC(=O)[C@H](CCCCN)NC(=O)[C@H](CCCNC(=N)N)NC(=O)[C@@H](NC(=O)[C@@H](NC(=O)[C@H](CCCNC(=N)N)NC(=O)[C@H](CCCNC(=N)N)NC(=O)[C@H](CC(C)C)NC(=O)[C@H](CC(N)=O)NC(=O)[C@@H](N)CCCCN)[C@@H](C)CC)[C@@H](C)CC)C(=O)N[C@@H](Cc1c[nH]cn1)C(=O)N[C@H](C(=O)N[C@H](C(=O)N[C@@H](CCCCN)C(=O)N[C@@H](CCCCN)C(=O)N[C@@H](Cc1ccc(O)cc1)C(=O)NCC(=O)O)[C@@H](C)CC)[C@@H](C)CC [Novispirin G10] (H-KNLRRIIRKGIHIIKKYG-OH; N-terminus assumed)
ratio, gene tra8_1: −4.3 | ratio, gene trpD: −3.4 | ratio, gene tsx: −3.3 | ratio, gene ugpA: 3.3 | ratio, gene uvrY: 3.3 | ratio, gene uxuB: 3.5 | ratio, gene vacJ: 3.0 | ratio, gene wcaD: −2.7 | ratio, gene wcaJ: −2.8 | ratio, gene wza: 3.3 | ratio, gene xasA: 24.9 | ratio, gene yaaI: 2.9 | ratio, gene yabI: −2.6 | ratio, gene yafC: −5.1 | ratio, gene yagT: 3.3 | ratio, gene yaiH: 6.1 | ratio, gene yaiP: −3.9 | ratio, gene ybaP: 8.4 | ratio, gene ybaS: 8.8 | ratio, gene ybaY: 9.9 | ratio, gene ybbN: −2.6 | ratio, gene ybbY: 4.4 | ratio, gene ybdS: 4.2 | ratio, gene ybeK: −3.0 | ratio, gene ybeL: 3.6 | ratio, gene ybfA: 3.5 | ratio, gene ybgA: 4.2 | ratio, gene ybhL: 9.3 | ratio, gene ybhP: −5.1 | ratio, gene ybhS: −2.6 | ratio, gene ybiU: −3.7 | ratio, gene ybiX: −2.7 | ratio, gene ybjC: −2.7 | ratio, gene ybjG: 5.8 | ratio, gene ybjN: −2.7 | ratio, gene ybjX: 5.3 | ratio, gene ycaC: 7.4 | ratio, gene ycbQ: −5.0 | ratio, gene yccD: 4.9 | ratio, gene yccM: 2.8 | ratio, gene ycdQ: −2.8 | ratio, gene ycfA: −3.4 | ratio, gene ycfH: 5.3 | ratio, gene ycfR: 2.8 | ratio, gene ycgB: 4.5 | ratio, gene ycgY: 3.0 | ratio, gene yciE: 5.4 | ratio, gene yciI: 5.1 | ratio, gene yciR: 6.5 | ratio, gene ycjF: −2.7 | ratio, gene yddM: 3.0 | ratio, gene ydhO: −2.8 | ratio, gene yeaG: 12.0 | ratio, gene yeaH: 2.8 | ratio, gene yeaP: −2.6 | ratio, gene yeaQ: 6.9 | ratio, gene yedU: 3.7 | ratio, gene yehT: −4.0 | ratio, gene yehX: 5.6 | ratio, gene yehY: 4.2 | ratio, gene yehZ: 7.1 | ratio, gene yeiQ: −2.7 | ratio, gene yfbM: 4.9 | ratio, gene yfcI: 3.1 | ratio, gene yfiA: −3.6 | ratio, gene yfiD: −2.6 | ratio, gene ygaG: 3.8 | ratio, gene ygaH: −3.3 | ratio, gene ygaM: 7.9 | ratio, gene ygaU: 5.1 | ratio, gene ygcO: −5.7 | ratio, gene ygeF: 5.2 | ratio, gene ygfQ: 3.7 | ratio, gene yggH: 5.7 | ratio, gene ygiA: 4.2 | ratio, gene ygiW: 5.2 | ratio, gene yhaF: −2.6 | ratio, gene yhcO: 4.4 | ratio, gene yhfG: 3.4 | ratio, gene yhgE: −2.9 | ratio, gene yhhZ: −2.6 | ratio, gene yhiE: 3.9 | ratio, gene yhiF: 2.9 | ratio, gene yhiW: 3.0 | ratio, gene yhjX: −9.6 | ratio, gene yi81_1: −3.2 | ratio, gene yiaG: 10.1 | ratio, gene yiaL: −2.9 | ratio, gene yibI: −3.1 | ratio, gene yidZ: −3.3 | ratio, gene yieJ: −2.9 | ratio, gene yieN: −3.8 | ratio, gene yigW_1: 3.8 | ratio, gene yihL: −8.0 | ratio, gene yihM: −3.3 | ratio, gene yihQ: 3.9 | ratio, gene yijC: 4.1 | ratio, gene yjbF: −3.5 | ratio, gene yjbO: 8.3 | ratio, gene yjcF: 3.1 | ratio, gene yjdB: 4.5 | ratio, gene yjiG: 3.1 | ratio, gene yjiZ: 3.8 | ratio, gene ykgE: −4.2 | ratio, gene ykgF: −3.1 | ratio, gene ylbB: −3.1 | ratio, gene ylcC: −3.6 | ratio, gene ylcD: 8.8 | ratio, gene ymdD: −4.3 | ratio, gene ymfJ: −3.4 | ratio, gene ymfM: 5.1 | ratio, gene ymgE: 3.9 | ratio, gene yncB: 3.4 | ratio, gene ynfL: 5.7 | ratio, gene yoaE: 2.8 | ratio, gene yodB: 6.2 | ratio, gene yohC: 12.0 | ratio, gene yohF: 2.8 | ratio, gene yohM: 7.7 | ratio, gene yqcD: −3.3 | ratio, gene yqgA: −2.9 | ratio, gene yqhD: −2.6 | ratio, gene yqhE: 4.0 | ratio, gene yqjC: 3.2 | ratio, gene yqjD: 5.8 | ratio, gene yqjE: 3.9 | ratio, gene yqjF: 3.6 | ratio, gene yqjG: 2.9 | ratio, gene yrbF: 3.1 | ratio, gene yrfG: −2.6 | ratio, gene ysgA: 2.8 | Fold, gene ais (AMP resistance): 14.1 | Fold, gene b2253 (AMP resistance): 8.4 | Fold, gene b2254 (AMP resistance): 5.5 | Fold, gene b2256 (AMP resistance): 4.0 | Fold, gene crcA (AMP resistance): 11.7 | Fold, gene Asr (Acid shock): 19.2 | Fold, gene Slp (Acid shock): 3.6 | Fold, gene dksA (Acid shock): 4.1 | Fold, gene dps (Acid shock): 4.4 | Fold, gene gabP (Acid shock): 8.2 | Fold, gene gabT (Acid shock): 6.5 | Fold, gene gadC (Acid shock): 24.9 | Fold, gene gadE (Acid shock): 3.9 | Fold, gene gadW (Acid shock): 3.0 | Fold, gene hdeA (Acid shock): 7.7 | Fold, gene hdeB (Acid shock): 7.9 | Fold, gene hdeD (Acid shock): 4.3 | Fold, gene nmpC (Acid shock): −6.6 | Fold, gene ybaS (Acid shock): 8.8 | Fold, gene ycaC (Acid shock): 7.4 | Fold, gene ydiZ (Acid shock): 9.1 | Fold, gene yeaQ (Acid shock): 6.9 | Fold, gene yebV (Acid shock): 6.9 | Fold, gene yiaG (Acid shock): 10.1 | Fold, gene amyA (Carbon metabolism): 5.8 | Fold, gene b2097 (Carbon metabolism): 8.1 | Fold, gene glk (Carbon metabolism): 3.4 | Fold, gene sfcA (Carbon metabolism): 5.8 | Fold, gene sfsA (Carbon metabolism): 6.4 | Fold, gene talA (Carbon metabolism): 11.7 | Fold, gene tktB (Carbon metabolism): 26.5 | Fold, gene clpB (Heat shock): −3.6 | Fold, gene dnaJ (Heat shock): −3.0 | Fold, gene dnaK (Heat shock): −2.8 | Fold, gene grpE (Heat shock): −3.0 | Fold, gene hslU (Heat shock): −3.2 | Fold, gene hslV (Heat shock): −3.0 | Fold, gene ibpB (Heat shock): −6.5 | Fold, gene lon (Heat shock): −2.9 | Fold, gene mopA (Heat shock): −3.6 | Fold, gene mopB (Heat shock): −9.1 | Fold, gene hemL (Mg^2+-stimulon): 8.3 | Fold, gene mgrB (Mg^2+-stimulon): 4.6 | Fold, gene mgtA (Mg^2+-stimulon): 7.5 | Fold, gene nagA (Mg^2+-stimulon): 3.7 | Fold, gene phoP (Mg^2+-stimulon): 2.8 | Fold, gene phoQ (Mg^2+-stimulon): 3.7 | Fold, gene rstB (Mg^2+-stimulon): 3.6 | Fold, gene nagB (Mg^2+-stlmulon(?)): 8.8 | Fold, gene narU (Nitrogen assimilation): 15.1 | Fold, gene narX (Nitrogen assimilation): −4.0 | Fold, gene narY (Nitrogen assimilation): 11.0 | Fold, gene narZ (Nitrogen assimilation): 4.9 | Fold, gene nirB (Nitrogen assimilation): −2.9 | Fold, gene nirC (Nitrogen assimilation): −3.0 | Fold, gene nirD (Nitrogen assimilation): −5.7 | Fold, gene nrfA (Nitrogen assimilation): −12.7 | Fold, gene bolA (Osmotic shock): 13 | Fold, gene dacC (Osmotic shock): 3.6 | Fold, gene katE (Osmotic shock): 9.9 | Fold, gene osmC (Osmotic shock): 7.2 | Fold, gene osmE (Osmotic shock): 11.7 | Fold, gene osmY (Osmotic shock): 6.4 | Fold, gene otsA (Osmotic shock): 5.2 | Fold, gene otsB (Osmotic shock): 5.6 | Fold, gene proW (Osmotic shock): 7.9 | Fold, gene yehX (Osmotic shock): 5.6 | Fold, gene yehY (Osmotic shock): 4.2 | Fold, gene yehZ (Osmotic shock): 7.1 | Fold, gene pspA (Phage shock): 6.7 | Fold, gene pspB (Phage shock): 6.9 | Fold, gene pspC (Phage shock): 15.8 | Fold, gene pspD (Phage shock): 13.5 | Fold, gene pspE (Phage shock): 9.4 | Fold, gene sfmC (Protein folding): 11.4 | Fold, gene aer (Redox): 14.3 | Fold, gene appB (Redox): 47.2 | Fold, gene appC (Redox): 3.5 | Fold, gene ndh (Redox): 3.1 | number of genes down-regulated [1]: 144 genes | number of genes up-regulated [1]: 200 genes
